Results reported in US9096591B2, “Tetracyclic compounds” (Medivation Technologies, Inc., priority 2007, dated 2015).

How the values were obtained:
[1] = biological target: T1, human recombinant serotonin (5-Hydroxytryptamine) 5-HT6 receptor (Homo sapiens, UniProt P50406); assay: Serotonin 5-HT6 radioligand binding ([3H]LSD); design: Inhibition of ligand binding, Ser. 5-HT6: concentration or dose not given beside the values; settings: percent inhibition of specific binding
T1 construct: expressed in transfected cells; host or cells: human HeLa cells
T1 sequence (P50406 whole entry): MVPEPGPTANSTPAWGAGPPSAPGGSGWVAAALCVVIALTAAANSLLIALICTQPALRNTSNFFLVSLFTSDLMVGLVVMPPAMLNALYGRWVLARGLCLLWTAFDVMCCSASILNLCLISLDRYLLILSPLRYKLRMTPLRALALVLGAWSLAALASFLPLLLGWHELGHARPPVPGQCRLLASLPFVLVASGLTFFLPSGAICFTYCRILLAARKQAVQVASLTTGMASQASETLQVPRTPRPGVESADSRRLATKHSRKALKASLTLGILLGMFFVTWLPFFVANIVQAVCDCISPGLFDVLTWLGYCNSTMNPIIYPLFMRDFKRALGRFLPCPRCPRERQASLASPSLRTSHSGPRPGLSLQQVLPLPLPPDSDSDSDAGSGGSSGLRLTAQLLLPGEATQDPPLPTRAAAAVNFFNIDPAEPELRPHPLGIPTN
Description: Receptor proteins were filtered and washed, the filters were then counted to determine [3H]LSD specifically bound. […] Biochemical assay results are presented as the percent inhibition of specific binding in Table 6.

[2] = biological target: T2, human recombinant adrenergic α2A receptor (Homo sapiens, UniProt P08913); assay: Adrenergic α2A radioligand binding ([3H]MK-912); design: Inhibition of ligand binding, Adren. alpha2A: concentration or dose not given beside the values; settings: percent inhibition of specific binding
T2 construct: expressed in transfected cells; host or cells: insect Sf9 cells
T2 sequence (P08913 1-465): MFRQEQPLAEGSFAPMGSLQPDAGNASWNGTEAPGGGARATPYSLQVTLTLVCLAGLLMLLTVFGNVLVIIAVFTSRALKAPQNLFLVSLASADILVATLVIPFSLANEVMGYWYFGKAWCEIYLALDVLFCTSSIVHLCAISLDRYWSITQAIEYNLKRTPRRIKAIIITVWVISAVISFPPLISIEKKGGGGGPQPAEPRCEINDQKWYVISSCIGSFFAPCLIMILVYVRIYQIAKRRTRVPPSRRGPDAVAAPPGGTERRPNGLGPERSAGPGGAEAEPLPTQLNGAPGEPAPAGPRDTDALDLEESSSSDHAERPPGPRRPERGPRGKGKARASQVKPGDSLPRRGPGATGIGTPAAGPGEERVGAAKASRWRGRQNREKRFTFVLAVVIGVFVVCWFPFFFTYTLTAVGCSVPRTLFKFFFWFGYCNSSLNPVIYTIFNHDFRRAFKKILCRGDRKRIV
Summary of the method: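 Membranes from Sf9 cells expressing the receptor were incubated with 1 nM [3H]MK-912 for 60 minutes at 25° C in 50 mM Tris-HCl pH 7.4, 12.5 mM MgCl2, 2 mM EDTA. 10 μM WB-4101 defined non-specific binding. Values are percent inhibition of specific bound radioactivity after filtration.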

[3] = biological target: T3, human recombinant histamine H1 receptor (Homo sapiens, UniProt P35367); assay: Histamine H1 radioligand binding ([3H]Pyrilamine); settings: percent inhibition of specific binding; screened at 1 μM; read-out: Inhibition of ligand binding, Hist. H1
T3 construct: expressed in transfected cells; host or cells: CHO cells
T3 sequence (P35367 whole entry): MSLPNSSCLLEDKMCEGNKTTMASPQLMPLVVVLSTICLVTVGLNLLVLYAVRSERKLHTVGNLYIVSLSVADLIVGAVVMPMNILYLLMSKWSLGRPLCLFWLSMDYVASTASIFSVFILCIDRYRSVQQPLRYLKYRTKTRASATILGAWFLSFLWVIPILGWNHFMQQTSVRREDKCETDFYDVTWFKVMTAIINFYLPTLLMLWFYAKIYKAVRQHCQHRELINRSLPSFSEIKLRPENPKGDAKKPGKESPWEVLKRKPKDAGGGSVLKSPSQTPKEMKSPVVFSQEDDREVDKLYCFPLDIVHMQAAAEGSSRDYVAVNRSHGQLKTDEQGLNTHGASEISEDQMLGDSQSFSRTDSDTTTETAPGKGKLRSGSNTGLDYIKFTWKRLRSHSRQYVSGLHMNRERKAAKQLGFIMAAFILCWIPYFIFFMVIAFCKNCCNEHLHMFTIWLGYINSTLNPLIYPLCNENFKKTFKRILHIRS
Summary of the method: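 CHO-expressed receptor in modified Tris-HCl buffer (50 mM, pH 7.4; 2 mM MgCl2, 100 mM NaCl, 250 mM sucrose); bound ligand measured after filtration and washing.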

[4] = biological target: T4, Serotonin (5-Hydroxytryptamine) 5-HT7 (Homo sapiens, UniProt P34969); assay: Serotonin 5-HT7 radioligand binding ([3H]LSD); design: Inhibition of ligand binding, Ser. 5-HT7: concentration or dose not given beside the values; settings: percent inhibition of specific binding
T4 construct: expressed in transfected cells; host or cells: CHO cells
T4 sequence (P34969 whole entry): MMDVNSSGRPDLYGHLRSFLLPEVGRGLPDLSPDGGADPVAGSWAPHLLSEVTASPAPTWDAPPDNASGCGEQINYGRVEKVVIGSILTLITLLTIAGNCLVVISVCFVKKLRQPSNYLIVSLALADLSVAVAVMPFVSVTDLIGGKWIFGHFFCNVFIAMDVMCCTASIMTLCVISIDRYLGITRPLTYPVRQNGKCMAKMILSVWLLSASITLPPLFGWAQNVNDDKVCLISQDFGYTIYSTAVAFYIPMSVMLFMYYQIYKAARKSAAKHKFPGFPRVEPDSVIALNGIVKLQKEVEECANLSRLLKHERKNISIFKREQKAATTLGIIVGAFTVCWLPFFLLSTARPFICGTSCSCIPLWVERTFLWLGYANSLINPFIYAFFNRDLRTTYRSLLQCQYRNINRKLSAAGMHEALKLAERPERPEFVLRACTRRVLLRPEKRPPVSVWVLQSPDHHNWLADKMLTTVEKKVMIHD
Description: Lysergic acid diethylamide (LSD) for 2 hours at 25° C. […] Receptor proteins were filtered and washed, the filters were then counted to determine [^3H]LSD specifically bound. […] Biochemical assay results are presented as the percent inhibition of specific binding in Table 6.

[5] = biological target: T5, human recombinant dopamine D2L receptor (Homo sapiens, UniProt P14416); assay: Dopamine D2L radioligand binding ([3H]Spiperone); settings: percent inhibition of specific binding
T5 construct: expressed in transfected cells; host or cells: CHO cells
T5 sequence (P14416 whole entry): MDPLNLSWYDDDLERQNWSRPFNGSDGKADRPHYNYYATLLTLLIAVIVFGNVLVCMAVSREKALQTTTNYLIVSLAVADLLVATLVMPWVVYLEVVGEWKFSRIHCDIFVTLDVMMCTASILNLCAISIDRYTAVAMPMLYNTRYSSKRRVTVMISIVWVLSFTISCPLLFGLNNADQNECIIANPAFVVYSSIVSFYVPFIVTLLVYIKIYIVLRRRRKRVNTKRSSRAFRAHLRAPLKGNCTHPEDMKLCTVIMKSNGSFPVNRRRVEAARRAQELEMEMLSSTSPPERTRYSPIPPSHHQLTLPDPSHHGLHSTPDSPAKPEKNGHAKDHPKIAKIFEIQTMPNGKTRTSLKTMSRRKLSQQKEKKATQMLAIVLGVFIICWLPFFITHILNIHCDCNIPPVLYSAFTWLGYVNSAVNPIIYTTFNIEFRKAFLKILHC
Description: Non-specific binding was estimated in the presence of 10 μM Haloperidol. Receptor proteins were filtered and washed, the filters were then counted to determine [^3H]Spiperone specifically bound. […] Biochemical assay results are presented as the percent inhibition of specific binding in Table 6.

SMILES | Inhibition of ligand binding, Ser. 5-HT6 [1] [%] | Inhibition of ligand binding, Adren. alpha2A [2] [%] | inhibition at 1 µM [3] [%] | Inhibition of ligand binding, Ser. 5-HT7 [4] [%] | Inhibition of ligand binding, Dop. D2L [5] [%]
Cc1ccc(CCn2c3c(c4cc(C(F)(F)F)ccc42)CN(C)CC3)cn1 [Compound 53] | 18 | 18 | 43 | 49 | –
Cc1ccc2c(c1)c1c(n2CCc2ccc(C)[n+]([O-])c2)CCN(C)C1 [Compound 394, 5-(2-(2,8-dimethyl-3,4-dihydro-1H-pyrido[4,3-b]indol-5(2H)-yl)ethyl)-2-methylpyridine 1-oxide] | 5 | 15 | 30 | 7 | –
Cc1ccc2c(c1)c1c(n2CCc2ccc(C)nc2)CCN(C2CC2)C1 [Compound 51] | 6 | 26 | 94 | 17 | –
Cc1ccc2c(c1)c1c(n2CCc2ccc(C)nc2)CC(=O)N(C)C1 [Compound 195, 1,2-dihydro-2,8-dimethyl-5-(2-(6-methylpyridin-3-yl)ethyl)-4H-pyrido[4,3-b]indol-3(5H)-one] | 8 | 4 | 3 | 2 | –
CN1CCc2c(c3c(Cl)cccc3n2CCc2ccccc2)C1 [Compound 81] | 86 | 96 | 94 | 89 | –
Cc1ccc2c(c1)c1c(n2CCc2ccccc2)CCN(C(=O)OCC(Cl)(Cl)Cl)C1 [Compound 227, 2,2,2-trichloroethyl 3,4-dihydro-8-methyl-5-phenethyl-1H-pyrido[4,3-b]indole-2(5H)-carboxylate] | 9 | 0 | -5 | −8 | –
CCc1ccc2c(c1)c1c(n2CCc2cnc(C)cn2)CCN(C)C1 [Compound 364, 8-Ethyl-2-methyl-5-[2-(5-methyl-pyrazin-2-yl)-ethyl]-2,3,4,5-tetrahydro-1H-pyrido[4,3-b]indole] | 70 | 65 | 87 | – | 29
Cc1ccc2c(n1)c1c(n2CCc2ccc(C(F)(F)F)nc2)CCN(C)C1 [Compound 353, 9-aza-2,8-dimethyl-5-(2-(6-(trifluoromethyl)pyridin-3-yl)ethyl)-2,3,4,5-tetrahydro-1H-pyrido[4,3-b]indole] | 0 | 8 | 10 | – | 5
Cc1cnc(CCn2c3c(c4cc(C(C)C)ccc42)CN(C)CC3)cn1 [Compound 369, 8-Isopropyl-2-methyl-5-[2-(5-methyl-pyrazin-2-yl)-ethyl]-2,3,4,5-tetrahydro-1H-pyrido[4,3-b]indole] | 23 | 25 | 39 | – | 1
CN1CCc2c(c3cc(Cl)ccc3n2CCc2cncnc2)C1 [Compound 424, 8-Chloro-2-methyl-5-(2-pyrimidin-5-yl-ethyl)-2,3,4,5-tetrahydro-1H-pyrido[4,3-b]indole] | 82 | 28 | 104 | – | 17
OC1CCC(N2CCc3c(c4cc(Cl)ccc4n3CCc3ccc(C(F)(F)F)nc3)C2)C1 (stereo not shown) [Compound 351, 3-(8-chloro-5-(2-(6-(trifluoromethyl)pyridin-3-yl)ethyl)-3,4-dihydro-1H-pyrido[4,3-b]indol-2(5H)-yl)cyclopentanol] | −4 | 8 | 74 | – | 7
Cc1ccc(CCn2c3c(c4cc(CO)ccc42)CN(C)CC3)cn1 [Compound 263] | 31 | 34 | 95 | – | −4
Cc1ccc2c(c1)c1c(n2CC(=O)N2CCC(C)CC2)CCN(C)C1 [Compound 251] | 7 | 2 | 55 | – | −7
CCc1ccc(CCn2c3c(c4cc(C)ccc42)CN(C)CC3)cn1 [Compound 359, 5-[2-(6-Ethyl-pyridin-3-yl)-ethyl]-2,8-dimethyl-2,3,4,5-tetrahydro-1H-pyrido[4,3-b]indole] | 95 | 77 | 99 | – | 51
CN1CCc2c(c3cc(OC(F)(F)F)ccc3n2CCc2ccc(C(F)(F)F)nc2)C1 [Compound 341, 5-(2-(6-(trifluoromethyl)pyridin-3-yl)ethyl)-2,3,4,5-tetrahydro-2-methyl-8-(trifluoromethoxy)-1H-pyrido[4,3-b]indole] | 17 | 36 | 28 | – | 8
Cc1ccc2c(c1)c1c(n2CCc2cnccn2)CCN(C)C1 [Compound 62] | 83 | 51 | 93 | – | −3
Cc1ccc(CCn2c3c(c4cc(C(C)C)ccc42)CN(C)CC3)cn1 [Compound 392, 8-Isopropyl-2-methyl-5-[2-(6-methyl-pyridin-3-yl)-ethyl]-2,3,4,5-tetrahydro-1H-pyrido[4,3-b]indole] | 61 | 89 | 98 | – | 24
Cc1cnc(CCn2c3c(c4cc(Cl)ccc42)CN(C)CC3)cn1 [Compound 363, 8-Chloro-2-methyl-5-[2-(5-methyl-pyrazin-2-yl)-ethyl]-2,3,4,5-tetrahydro-1H-pyrido[4,3-b]indole] | 83 | 59 | 95 | – | 24
CC(C)N1CCN(C(=O)Cn2c3c(c4cc(Cl)ccc42)CN(C)CC3)CC1 [Compound 248] | 67 | 27 | 85 | – | 2
Cc1ccc2c(c1)c1c(n2CC(=O)N2CCCC2)CCN(C)C1 [Compound 257, 2-(1,2,3,4-tetrahydro-2,8-dimethylpyrido[4,3-b]indol-5-yl)-1-(pyrrolidin-1-yl)ethanone] | 2 | −4 | 64 | – | −7
CN1CCc2c(c3cc(Cl)ccc3n2CCc2cncc(C(F)(F)F)c2)C1 [Compound 426, 8-chloro-5-(2-(5-(trifluoromethyl)pyridin-3-yl)ethyl)-2,3,4,5-tetrahydro-2-methyl-1H-pyrido[4,3-b]indole] | 65 | 42 | 99 | – | −7
Cc1ccc(CCn2c3c(c4cc(Cl)ccc42)CN(c2cccc(C(F)(F)F)c2)CC3)cn1 [Compound 403, 8-Chloro-5-[2-(6-methyl-pyridin-3-yl)-ethyl]-2-(3-trifluoromethyl-phenyl)-2,3,4,5-tetrahydro-1H-pyrido[4,3-b]indole] | 0 | 30 | 54 | – | 2
